Source: article PMC7728754, “MRI-based molecular imaging of epicardium-derived stromal cells (EpiSC) by peptide-mediated active targeting” (Scientific Reports, 2020)
Entries after “also recorded” stand apart in the source; their conditions may differ. Values belong to the substance of their own block, whether it stands above or below them.

Key:
cultured EpiSCs [1] = assay: Flow cytometry binding of FAM-labelled EPs to cultured EpiSCs; assay type: cell-based, rat; details: 5 µg/ml FAM-labelled peptide, up to 120 min, 37 °C, n = 5
Experimental: EpiSCs were detached from the cell culture flask with PBS-EDTA (5 mM) and resuspended in DMEM at a concentration of 0.5 × 10^6 cells/ml. Cell suspensions were incubated with 5 µg/ml of EP1, EP2, EP3, EP7 and EP9 for up to 120 min at 37 °C. After 10, 20, 40, 80 and 120 min, samples were transferred into tubes containing ice-cold MACS buffer (PBS, 2% FCS, 1 mM EDTA) to stop the reaction. Cells were centrifuged for 5 min at 500 × g and 4 °C, washed twice and finally suspended in MACS buffer with DAPI (4′,6-Diamidino-2-phenylindole dihydrochloride; 1 µg/ml) to label dead cells. Flow cytometric analysis was performed on a BD FACS Canto II (BD Biosciences, Heidelberg, Germany).

THP-1 monocytes = assay: Surface plasmon resonance, THP-1 monocytes over immobilized EP9; assay type: binding, human; details: SPR, CM5 chip, 30 µl/min, 25 °C, PBS, negative control cells
Experimental: (§1) To analyse the interaction kinetics between peptide EP9 and EpiSCs, we used a BIAcore X100 system equipped with a CM5 sensor chips (GE Healthcare GmbH, Solingen, Germany). EP9 peptide was immobilized to the surface of the CM5 chip (600 µg/ml; 30 µl/min) using a thiol coupling chemistry (GE Healthcare GmbH). Presence of a free SH group at the C-terminal of EP9 peptide enabled us to efficiently immobilize it through a thiol coupling procedure. Afterward, EpiSCs and THP-1 monocytes (ATCC: TIB-202; 10,000 cells/µl) were injected over the sensor chip to monitor the association between immobilized EP9 peptide and the cells. After injection of the cells, dissociation phase was monitored by introduction of buffer for a period of 300 s. In another experimental strategy, increasing numbers of EpiSCs (200, 400 and 800 × 10^3) were flushed over the immobilized peptide EP9 with a flow rate of 30 µl/min and dissociation was measured for an identical period of time. Finally, to block the EP9 binding sites, EpiSCs were pre-incubated for 30 min with 5 µg of EP9 before injection into the BIAcore system and subjected to the same procedure as described above. All SPR experiments were carried out at 25 °C in PBS.

EpiSCs = assay: Surface plasmon resonance, EpiSCs over immobilized EP9; assay type: binding, rat; details: SPR, 25 °C, PBS
Experimental: as §1

EpiSC and THP-1 cells = assay: Cytotoxicity by DAPI flow cytometry; assay type: cell-based; details: 200 µl of cells + 5 µl EP9PFCs or 1.9 µg EP9, up to 120 min, 37 °C, n = 3
Experimental: EpiSC and THP-1 cells were incubated with EP9 peptide or ^EP9PFCs (200 µl of cells + 5 µl ^EP9PFCs or 1.9 µg EP9) over a period of 120 min at 37 °C. Samples were withdrawn after 0 min, 15 min, 30 min, 60 min and 120 min and analyzed by flow cytometry. Cells were stained with DAPI (1 µg/ml) to label dead cells.

cultured EpiSCs [2] = assay: Impact of storage on EP9/EP9PFC targeting efficacy; assay type: cell-based, rat; details: stored in phosphate buffer at 4 °C for 24 h, then 30 min at 37 °C on cultured EpiSCs, flow cytometry, n = 3
Experimental: EP9 and ^EP9PFCs were stored in phosphate buffer at 4 °C for 6 h and 24 h. Subsequently EP9 and ^EP9PFCs were incubated on cultured EpiSCs for 30 min at 37 °C. Cells were washed twice with MACS buffer and then analyzed by flow cytometry.

[3] = system: primary human CD14+ monocytes; assay: Flow cytometry binding of EP9 to primary human monocytes; assay type: cell-based; details: 1.9 µg EP9 in 600 µl cell suspension, up to 45 min, 37 °C, n = 4 (Fig. S3)
Experimental: Blood was withdrawn from healthy human volunteers by venous puncture and 10 ml of whole blood were mixed with 10 ml of PBS and gently laid on top of Histopaque-1077 (Sigma-Aldrich Chemie GmbH). After density centrifugation, the PBMC layer was diluted 1:1 with PBS and a centrifugation step was performed. The cell pellet was subjected to erythrocyte lysis using hypotonic buffer for 10 min at 4 °C. After centrifugation, the cells were resuspended in 8.5 ml DMEM. The cell suspension (600 µl) was incubated with 1.9 µg of EP9 for 45 min, at 37 °C. After 5, 15 and 45 min, samples were transferred into ice cold MACS buffer to stop the reaction and centrifuged for 5 min at 500 × g. Cells were washed with MACS buffer, resuspended in CD14-PE/Cy7 (PE/Cy7 anti-human CD14, Clone 63D3, BioLegend, San Diego, USA) antibody solution and incubated for 30 min at 4 °C. Flow cytometric analysis was performed after two washing steps and suspension in MACS buffer with DAPI (1 µg/ml) using a BD FACS Canto II.

Substance: KLMLPRP [EP9]
Binding to cultured EpiSCs (cultured EpiSCs [1]): strong binding; also recorded: best binding properties
Association of THP-1 monocytes to immobilized peptide (THP-1 monocytes): only minor association
Association of EpiSCs to immobilized peptide (EpiSCs; CM5 chip, thiol coupling, 30 µl/min): rapidly associated
Dissociation rate (EpiSCs; EpiSCs over thiol-immobilized EP9, 30 µl/min): 0.005 s⁻¹
Acute cytotoxic effects (EpiSC and THP-1 cells): did not find evidence for acute cytotoxic effects
Cellular labelling of EpiSCs after storage (cultured EpiSCs [2]): severely reduced
Binding to primary monocytes [3]: not detectable

Substance: ATKTIAP [EP2]
Binding to cultured EpiSCs (cultured EpiSCs [1]): strong binding

Substance: SEPIVPL [EP1]
Binding to cultured EpiSCs (cultured EpiSCs [1]): strong binding

The next lines start with the values.

Binding to cultured EpiSCs (cultured EpiSCs [1]): strong binding
Substance: QSHALMA [EP7]

Binding to cultured EpiSCs (cultured EpiSCs [1]): strong binding
Substance: THVYRDE [EP3]
